In patent publication US7910622B2, “Modulation of bacterial quorum sensing with synthetic ligands” (Wisconsin Alumni Research Foundation, priority 2007, dated 2011):
pEC50, pIC50: −log10 of the molar value.

Key:
Experiment in all cases: cell-based
LasR [1] = target: T1, LasR (Pseudomonas aeruginosa, UniProt P25084); settings: for E. coli-LasR Activation [%]: 5 μM ligand; for Activation (%): E. coli-LasR, Library C primary agonism screen
T1 construct: expressed in transfected cells; host or cells: E. coli DH5α (pJN105L pSC11), arabinose-induced
Experimental: (§1) E. coli LasR reporter gene assay protocols. […] An overnight culture of E. coli DH5a (pJN105L pSC11) grown at 37° C. was subculture by diluting 1/10 in fresh LB medium containing 100 μg/mL ampicillin and 15 μg/mL gentamicin and shaking at 37° C. until OD600=0.3. Arabinose (4 mg/mL) was then added to induce the LasR promoter and a 200 μL-portion of this culture was added to each well of the multititer plate containing AHLs. Plates were grown at 37° C. for 2 hours in a rotary shaking incubator (200 rpm; OD600=0.45). The cultures were then assayed for activity following the identical β-galactosidase assay protocols used in the A. tumefaciens reporter gene assays.
(§2) Dose response reporter gene assays. […] IC50 and EC50 values were calculated using GraphPad Prism software (v. 4.0) using a sigmoidal curve fit.
(§3) E. coli LasR reporter gene assay protocols. […] An overnight culture of E. coli DH5α (pJN105L pSC11) was diluted 1:10 with fresh LB medium containing 100 μg/mL ampicillin and 15 μg/mL gentamicin. This sub-culture was incubated at 37° C. until OD600=0.3 (4-6 h). Arabinose (4 mg/mL) was then added to induce the LasR promoter, and a 200 μL portion of this culture was added to each well of the multititer plate containing AHLs. Plates were incubated at 37° C. until OD600=0.45 (4-6 h). The cultures were then assayed for LasR activity following the identical β-galactosidase assay protocols used in the A. tumefaciens reporter gene assays (see above).
as §2

LuxR [2] = target: T2, LuxR (Aliivibrio fischeri, UniProt P35327); type: cell-based, Vibrio fischeri; settings: for V. fischeri-LuxR Inhibition [%]: 5 μM synthetic ligand against 5 μM OHHL; for Inhibition (%): V. fischeri-LuxR, Library C primary antagonism screen
T2 construct: a Δ-luxI derivative of V. fischeri ES114, in which the native lux operon behaves as the bioluminescent reporter; endogenous in cells; host or cells: V. fischeri ES114 (Δ-luxI)
Experimental: (§4) Luminescence assays. For agonism assays, an appropriate amount of AHL stock solution was added into a 96-well plate. An overnight culture of E. coli or V. fischeri was diluted 1:10 with appropriate media (LB plus 10 μg/mL tetracycline for E. coli; LBS for V. fischeri). A 200-μL portion of the diluted culture was added to each well of the plate. Plates were grown for 4-8 h with shaking (200 rpm; 30° C. for E. coli and RT for V. fischeri). Luminescence was measured using a multilabel plate reader and normalized to cell density. […] All assays were performed in triplicate. Graphpad Prism software was used to calculate IC50 and EC50 values.
(§5) Vibrio fischeri assay procedures. […] An overnight culture of V. fischeri ES114 (WT, Δ-luxI or Δ-luxR) was diluted 1:10 with LBS medium. A-200 μL portion of the diluted culture was added to each well of the plate. Plates were grown at RT with shaking (200 rpm) until the OD600=0.35-0.4 (4-6 h). Luminescence then was measured and normalized to cell density per well. […] All assays were performed in triplicate. IC50 and EC50 values were calculated using GraphPad Prism software using a sigmoidal curve fit.
(§6) V. fischeri reporter gene assay protocols. […] An overnight culture of V. fischeri ES114 (D-luxI) was diluted 1:10 with LBS medium. A 200-μL portion of the diluted culture was added to each well of the multititer plate. Plates were grown at RT with shaking (200 rpm) until the OD600=0.35-0.4 (4-6 h). Luminescence then was measured and normalized to cell density per well.
as §2
as §6, with “(Δ-luxI)” for “(D-luxI)”, “A200 μL” for “A 200-μL”, “incubated” for “grown”, “RT” for “RT with shaking (200 rpm)”
as §2

LuxR [3] = target: T2, LuxR; parameters: species or system Vibrio fischeri; settings: for V. fischeri-LuxR Activation [%]: 200 μM ligand; for V. fischeri-LuxR Activation [%] / activation at 200 µM: V. fischeri ES114 (Δ-luxI), normalized to OHHL; for Activation (%): V. fischeri-LuxR, Library C primary agonism screen; for activation at 200 µM: read-out: V. fischeri-LuxR Activation [%], 200 μM ligand
Experimental: as §4, §5, §6, §2
as §6, with “(Δ-luxI)” for “(D-luxI)”, “A200 μL” for “A 200-μL”, “incubated” for “grown”, “RT” for “RT with shaking (200 rpm)”
as §2

LasR [4] = target: T1, LasR; type: cell-based; settings: for E. coli-LasR Inhibition [%]: 5 μM synthetic ligand against 7.5 nM OdDHL; for E. coli-LasR Inhibition [%] / inhibition at 5 µM: E. coli DH5α (pJN105L pSC11), normalized to OdDHL; for Inhibition (%): E. coli-LasR, Library C primary antagonism screen; for inhibition at 5 µM: read-out: E. coli-LasR Inhibition [%], 5 μM synthetic ligand against 7.5 nM OdDHL
Experimental: as §1, §2, §3, §2

TraR = target: T3, TraR (Agrobacterium tumefaciens, UniProt P33905); settings: for A. tumefaciens-TraR Activation [%]: 10 μM ligand; for A. tumefaciens-TraR Inhibition [%]: 10 μM synthetic ligand against 100 nM OOHL; for Activation (%) / Inhibition (%): A. tumefaciens-TraR; for Activation (%): Library C primary agonism screen; for Inhibition (%): Library C primary antagonism screen; for pIC50: determined against 100 nM OOHL, read-out: TraR IC50; for activation at 10 µM: read-out: A. tumefaciens-TraR Activation [%]
T3 construct: These strains lack their AHL synthase (I) genes, but retain their native R genes; endogenous in cells; host or cells: A. tumefaciens WCF47 (Δ-traI) with PtraI-lacZ plasmid pCF372
Experimental: A. tumefaciens reporter gene assay protocols. […] An overnight culture of A. tumefaciens WCF47 (pCF372) was diluted to an OD600 of 0.1 in fresh AB minimal medium containing 400 μg/mL octopine and 50 μg/mL streptomycin. A 200 μL-portion of the diluted culture was added to each well of the multititer plate containing AHLs. Plates were grown at 28° C. for 18-20 h in a rotary shaking incubator (200 rpm). The cultures were then assayed for β-galactosidase activity following the Miller assay method. Briefly, 200 μL aliquots of bacteria from each of the wells were added to wells of a polystyrene 96-well plate and the OD600 of each well was recorded. Next, 50 μL aliquots from each well were transferred to a solvent resistant 96-well plate containing 200 μL Z buffer, 8 μL CHCl3 and 4 μL 0.1% aq. sodium dodecylsulfate (SDS). This suspension was mixed via repetitive pipetting, after which the CHCl3 was allowed to settle. A 100-μL aliquot from each well was transferred to a fresh polystyrene 96-well plate, and 20 μL of substrate, o-nitrophenyl-β-D-galactopyranoside (ONPG, 4 μg/mL in phosphate buffer), was added at time zero. After the development of appropriate yellow color (ca. 15-35 min), the reaction was terminated by the addition of 50 μL of 1 M Na2CO3. Absorbance at 420 nm and 550 nm was measured for each well using a plate reader, and Miller units were calculated according to standard methods.
as §2
A. tumefaciens reporter gene assay protocols. […] An overnight culture of A. tumefaciens WCF47 (pCF372) was diluted 1:10 with fresh AB minimal medium containing 400 μg/mL octopine and 50 μg/mL streptomycin. A 200 μL portion of the diluted culture was added to each well of the multititer plate containing AHLs. Plates were incubated at 28° C. for 18-24 h. The cultures were then assayed for β-galactosidase activity following the Miller assay method. Briefly, 200 μL aliquots of bacteria from each of the wells were added to wells of a 96-well multititer plate, and the OD600 of each well was recorded. Next, 50 μL aliquots from each well were transferred to a solvent resistant 96-well multititer plate containing 200 μL Z buffer, 8 μL CHCl3 and 4 μL 0.1% aq. SDS. This suspension was mixed via repetitive pipetting, after which the CHCl3 was allowed to settle. A 100 μL aliquot from each well was transferred to a fresh 96-well multititer plate, and 20 μL of substrate, o-nitrophenyl-β-D-galactopyranoside (ONPG, 4 μg/mL in phosphate buffer), was added at time zero. After the development of appropriate yellow color (ca. 20-30 min), the reaction was terminated by the addition of 50 μL of 1 M Na2CO3. Absorbances at 420 nm and 550 nm were measured for each well using a plate reader, and Miller units were calculated according to standard methods.
as §2

[5] = E. coli DH5α (pJN105L pSC11), normalized to OdDHL
[6] = V. fischeri ES114 (Δ-luxI), normalized to OHHL
[7] = A. tumefaciens WCF47 (pCF372), normalized to OOHL

T3 sequence (P33905 whole entry): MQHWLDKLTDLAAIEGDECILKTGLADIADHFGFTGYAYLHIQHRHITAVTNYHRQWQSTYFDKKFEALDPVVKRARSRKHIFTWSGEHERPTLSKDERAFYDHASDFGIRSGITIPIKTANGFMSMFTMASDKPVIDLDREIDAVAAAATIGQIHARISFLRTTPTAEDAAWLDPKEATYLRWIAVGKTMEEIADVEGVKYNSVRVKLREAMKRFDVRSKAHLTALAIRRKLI
T1 sequence (P25084 whole entry): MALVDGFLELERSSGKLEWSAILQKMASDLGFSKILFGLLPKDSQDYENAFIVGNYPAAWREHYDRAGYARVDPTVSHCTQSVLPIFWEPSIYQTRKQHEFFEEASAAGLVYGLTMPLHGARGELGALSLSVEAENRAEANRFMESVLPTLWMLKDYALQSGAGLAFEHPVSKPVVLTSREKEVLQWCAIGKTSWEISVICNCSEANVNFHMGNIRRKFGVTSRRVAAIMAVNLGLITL
T2 sequence (P35327 whole entry): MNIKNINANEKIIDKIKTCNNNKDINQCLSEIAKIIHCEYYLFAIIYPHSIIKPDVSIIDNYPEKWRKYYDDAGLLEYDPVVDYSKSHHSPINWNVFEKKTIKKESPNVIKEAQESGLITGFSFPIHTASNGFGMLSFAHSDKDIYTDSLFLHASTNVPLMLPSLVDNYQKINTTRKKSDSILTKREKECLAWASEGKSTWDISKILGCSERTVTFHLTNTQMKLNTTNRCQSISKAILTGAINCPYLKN

| Compound | E. coli-LasR Activation [%] (LasR [1]; [5]) | V. fischeri-LuxR Inhibition [%] (LuxR [2]; [6]) | V. fischeri-LuxR Activation [%] (LuxR [3]) | E. coli-LasR Inhibition [%] (LasR [4]) | A. tumefaciens-TraR Activation [%] (TraR; [7]) | A. tumefaciens-TraR Inhibition [%] (TraR; [7]) | further results |
| --- | --- | --- | --- | --- | --- | --- | --- |
| CC(C)(C)OC(=O)NCCCCC(=O)N[C@H]1CCOC1=O [A22] | 3% | 47% | 2% | 15% | 0% | 10% | – |
| 4-amino PHL [C21] | – | – | – | – | – | – | Activation (%) (LasR [1]): 0%; Inhibition (%) (LuxR [2]): 12%; Activation (%) (LuxR [3]): 3%; Inhibition (%) (LasR [4]): 8%; Activation (%) (TraR): 0%; Inhibition (%) (TraR): 5% |
| O=C(Cc1ccc(C(F)(F)F)cc1)N[C@H]1CCOC1=O [C20, 4-trifluoromethyl PHL] | – | – | – | – | – | – | Activation (%) (LasR [1]): 0%; Inhibition (%) (LuxR [2]): 78%; Activation (%) (LuxR [3]): 3%; Inhibition (%) (LasR [4]): 26%; Activation (%) (TraR): 2%; Inhibition (%) (TraR): 92%; pIC50 (TraR): 6.09 |
| CC(=O)c1ccc(OCC(=O)N[C@H]2CCOC2=O)cc1C [D17] | 0% | 50% | 2% | 26% | 1% | 92% | pIC50 (TraR): 5.85 |
| O=C(Cc1c(F)c(F)c(F)c(F)c1F)N[C@H]1CCOC1=O [B19, pentafluoroaromatic PHL] | 2% | 40% | 2% | 19% | 0% | 2% | – |
| O=C(/C=C/c1ccccc1)N[C@H]1CCOC1=O [A19] | 2% | 48% | 3% | 22% | 3% | 7% | – |
| CCCCCCCCCCCS(=O)(=O)N[C@H]1CCOC1=O [A16] | 0% | 74% | 1% | 21% | 0% | 29% | – |
| O=C(Cc1ccccc1[N+](=O)[O-])N[C@H]1CCOC1=O [B18] | 0% | 23% | 4% | 17% | 0% | 1% | – |
| 4-methyl PHL [B24] | 0% | 58% | 1% | 11% | 3% | 21% | – |
| CCCCCC(=O)CC(=O)N[C@H]1CCOC1=O [compound 1, N-(3-oxo-octanoyl)-L-homoserine lactone, reference compound] | – | – | – | 50% | – | – | inhibition at 5 µM (LuxR [2]; read-out: V. fischeri-LuxR Inhibition [%], 5 μM synthetic ligand against 5 μM OHHL, V. fischeri ES114 (Δ-luxI), normalized to OHHL): 63%; activation at 200 µM (LuxR [3]): ~25%; pIC50 (LasR [4]; determined against 7.5 nM OdDHL, read-out: LasR IC50): 6.96; inhibition at 5 µM (LasR [4]): ≥ 50%; pEC50 (TraR; EC50 of autoinducer in A. tumefaciens WCF47 (pCF372), value in method text): 7.00; pEC50 (TraR; TraR EC50): 6.70; activation at 10 µM (TraR): 100% |
| 4-azido PHL [B20] | 0% | – | 5% | 19% | 0% | – | – |
| O=C(CCCc1ccccc1)N[C@@H]1CCOC1=O [A26] | 0% | 41% | 3% | – | 0% | 31% | – |
| CCCC(=O)CC(=O)N[C@H]1CCOC1=O [compound 3] | – | – | – | – | – | – | activation at 5 µM (LasR [1]; read-out: E. coli-LasR Activation [%], 5 μM ligand, E. coli DH5α (pJN105L pSC11), normalized to OdDHL): 1%; pEC50 (LuxR [3]; LuxR EC50, V. fischeri ES114 (Δ-luxI)): 5.52; activation at 200 µM (LuxR [3]): 100%; inhibition at 5 µM (LasR [4]): 15%; activation at 10 µM (TraR): 1%; inhibition at 10 µM (TraR; read-out: A. tumefaciens-TraR Inhibition [%], 10 μM synthetic ligand against 100 nM OOHL, A. tumefaciens WCF47 (pCF372), normalized to OOHL): 89% |
| O=C(CC(=O)N[C@@H]1CCOC1=O)Cc1ccccc1 [A25] | 84% | – | 3% | −7% | 2% | 50% | pEC50 (LasR [1]; read-out: LasR EC50): 6.27 |
